Experimental findings from patent US9708323B2, “Tricyclic compounds as alpha-7 nicotinic acetylcholine receptor ligands” (BRISTOL-MYERS SQUIBB COMPANY, priority 2014, dated 2017) are described below.

In one test the target is T1, α-7 nicotinic ACh receptor ion channel expressed in HEK 293 cells (Rattus norvegicus, UniProt Q05941).
T1 construct: expressed in transfected cells
T1 sequence (Q05941 23-502): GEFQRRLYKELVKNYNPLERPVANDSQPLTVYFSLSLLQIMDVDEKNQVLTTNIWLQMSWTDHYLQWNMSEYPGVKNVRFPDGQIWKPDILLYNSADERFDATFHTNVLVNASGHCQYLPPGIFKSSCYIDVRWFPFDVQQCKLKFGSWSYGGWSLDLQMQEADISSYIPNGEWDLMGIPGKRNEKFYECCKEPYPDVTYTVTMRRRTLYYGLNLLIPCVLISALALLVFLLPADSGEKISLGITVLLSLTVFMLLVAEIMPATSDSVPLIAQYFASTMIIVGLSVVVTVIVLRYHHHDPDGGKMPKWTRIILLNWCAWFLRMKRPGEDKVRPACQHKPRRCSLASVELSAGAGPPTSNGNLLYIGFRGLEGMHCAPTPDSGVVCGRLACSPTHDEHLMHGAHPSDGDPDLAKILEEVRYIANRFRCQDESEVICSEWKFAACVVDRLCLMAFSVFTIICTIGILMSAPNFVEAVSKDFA
Description: Ca2+-sensitive, fluorescence-based assay for α-7 nicotinic acetylcholine receptor channel function in mammalian cells (FLIPR). Conditions: Table 2, agonist Ca2+ flux, read-out: FLIPR α7 (EC50). The format is cell-based. The procedure:
II) A Ca^2+-Sensitive, Fluorescence-Based Assay α-7 for Nicotinic Acetylcholine Receptor Channel Function in Mammalian Cells (“FLIPR”). Summary:
Lead compounds are evaluated for agonist activity at α-7, α3β4, α4αβ2, and α1β1δ1ε sub-types of nicotinic ACh receptor ion channels expressed in mammalian HEK 293 cells. Agonist potency and efficacy values are determined from kinetic fluorescence Ca^2+ influx measurements made using a 384 well FLIPR (Fluorescence Image Plate Reader). The utility of fluorescent indicators for measuring changes in intracellular divalent cation concentrations, particularly Ca^2+, for drug discovery endeavors is well documented (Rudiger, R., et al., Nature Reviews, 2003, 4:579-586; Gonzalez J. E., et al., Receptors and Channels, 2002, 8:283-295). In this assay, channel expressing HEK cell lines seeded in 384 well assay plates are loaded with a membrane permeant fluorescent Ca^2+ indicator dye, whose 510 nm green emission signal increases in response to elevation of intracellular Ca^2+ concentration. The basal fluorescence from the cells is monitored in real time, followed by the acute addition of test compounds. If the compound is an agonist at any of the non-selective cation channels, the latter open and allow the movement of extracellular Ca^2+ ions into the cell cytoplasm, where they bind to the Ca^2+ indicator dye, and produce an increase in fluorescence output signal, which is detected by a cooled CCD imaging camera.
Reagents: The acetomethoxy (AM) ester of the Ca^2+ indicator dye Fluo-4 was obtained from InVitrogen, (Carlsbad, Calif.). Acetylcholine and all buffer constituents were purchased from Sigma Chemical Company, St. Louis, Mo. G418 and Minimal Essential Medium were purchased from InVitrogen Life Technologies, Carlsbad, Calif. Fetal bovine serum was purchased from (InVitrogen, Carlsbad, Calif.).
HEK-293 cells were grown in Minimal Essential Medium containing 10% (v/v) fetal bovine serum at 37° C. in a 5% CO2 incubator. HEK-293 cells stably expressing the ion channels were grown in the same medium with the addition of 500 μg/ml G418.
HEK-293 cells expressing the ion channels of interest were plated in 384 well, black-walled, clear-bottomed, poly-D-lysine coated plates at a density of ˜20,000 cells/well in 20 μl of Minimal Essential Medium containing 10% (v/v) fetal bovine serum and incubated for 2 days at 29° C. in a 5% CO2 incubator. Prior to assay, cells were loaded with the Fluo-4 AM ester. Cell loading was accomplished by removing the culture medium and replacing it with 30 μl/well of the AM ester of the dye (5 μM) mixed with Hanks Balanced Salt Solution (#14175-095) containing 20 mM HEPES, 2.5 mM probenecid, 0.5 mM CaCl2, 1 mM MgCl2 and 10 μM atropine. Dye loading was allowed to proceed for 90 minutes at room temperature at which time the dye loading solution was removed and replaced with 40 μl/well of Hanks buffer. Cells loaded with dye were loaded onto a FLIPR384 (Molecular Devices, Sunnyvale, Calif.). Fluo-4 dye was excited using the 488 nm line of an argon laser. Emission was filtered using a 540+/−30 nm bandpass filter. For evaluation of the effects of test compounds using the Ca^2+ flux assay, compounds to be tested were provided in assay ready plates. For nicotinic receptor ion channel expressing cells, the assay was initiated by the addition of 20 μl/well of Hanks buffer containing test compounds. For all assays, data were collected at 1 Hz for 10 seconds (baseline), at which time the compound containing stimulus buffers are added, and further measurements collected at 0.33 Hz for 3 min.
The statistical robustness of the nicotinic receptor Ca^2+ flux assays is determined from blanks and totals wells. The totals wells define maximal channel activation for each compound test plate (Maximum efficacious dose of acetylcholine), and the blanks wells which contain matched DMSO only, define zero channel activation. […]
Broadly, the EC50 is the concentration that produces a half-maximal response. As to `O=C(c1cc2cccc(Cl)c2s1)N1C[C@H]2C[N@]3CC[C@H]2[C@H]1C3` [Example 96, 7-chlorobenzo[b]thiophen-2-yl((3R,3aR,6S,7aS)-hexahydro-3,6-methanopyrrolo[2,3-c]pyridin-1(2H)-yl)methanone], the EC50 is above 100 µM.

Turning to `O=C(c1nsc2ccccc12)N1C[C@H]2C[N@]3CC[C@H]2[C@H]1C3` [Example 97, benzo[d]isothiazol-3-yl((3R,3aR,6S,7aS)-hexahydro-3,6-methanopyrrolo[2,3-c]pyridin-1(2H)-yl)methanone], the EC50 is 30 µM.

With `O=C(c1ccc(Cl)cc1)N1C[C@H]2C[N@]3CC[C@H]2[C@H]1C3` [Example 98, (4-chlorophenyl) ((3R,3aR,6S,7aS)-hexahydro-3,6-methanopyrrolo[2,3-c]pyridin-1(2H)-yl)methanone], the EC50 is above 100 µM.

As for `O=C(c1cc2ccccc2o1)N1C[C@H]2C[N@]3CC[C@H]2[C@H]1C3` [Example 99, benzofuran-2-yl((3R,3aR,6S,7aS)-hexahydro-3,6-methanopyrrolo[2,3-c]pyridin-1(2H)-yl)methanone], the 50% effective concentration (EC50) stood at 35 µM.

The test is the same for the next values; noted with them: Table 3, agonist Ca2+ flux, read-out: FLIPR α7 (EC50).
For the compound `O=C(c1cc2ccccc2s1)N1C[C@@H]2C[N@@]3CC[C@@H]2[C@@H]1C3` [Example 100, benzo[b]thiophen-2-yl((3S,3aS,6R,7aR)-hexahydro-3,6-methanopyrrolo[2,3-c]pyridin-1(2H)-yl)methanone], the concentration giving a half-maximal response (EC50) came to 11 µM.

As for `Cn1nc(C(=O)N2C[C@@H]3C[N@@]4CC[C@@H]3[C@@H]2C4)c2ccccc21` [Example 101, ((3S,3aS,6R,7aR)-hexahydro-3,6-methanopyrrolo[2,3-c]pyridin-1(2H)-yl)(1-methyl-1H-indazol-3-yl)methanone], the EC50 was above 100 µM.

As for `Cn1cc(C(=O)N2C[C@@H]3C[N@@]4CC[C@@H]3[C@@H]2C4)c2ccccc21` [Example 102, ((3S,3aS,6R,7aR)-hexahydro-3,6-methanopyrrolo[2,3-c]pyridin-1(2H)-yl)(1-methyl-1H-indol-3-yl)methanone], the EC50 is above 100 µM.

Take `O=C(c1n[nH]c2ccc(Cl)cc12)N1C[C@@H]2C[N@@]3CC[C@@H]2[C@@H]1C3` [Example 103, ((3S,3aS,6R,7aR)-hexahydro-3,6-methanopyrrolo[2,3-c]pyridin-1(2H)-yl)(5-chloro-1H-indazol-3-yl)methanone]: the EC50 is above 100 µM.

Take `COc1ccc2c(C(=O)N3C[C@@H]4C[N@@]5CC[C@@H]4[C@@H]3C5)n[nH]c2c1` [Example 104, ((3S,3aS,6R,7aR)-hexahydro-3,6-methanopyrrolo[2,3-c]pyridin-1(2H)-yl)(6-methoxy-1H-indazol-3-yl)methanone]: the EC50 is above 100 µM.

In the case of `O=C(c1n[nH]c2ccc(Br)cc12)N1C[C@@H]2C[N@@]3CC[C@@H]2[C@@H]1C3` [Example 105, ((3S,3aS,6R,7aR)-hexahydro-3,6-methanopyrrolo[2,3-c]pyridin-1(2H)-yl)(5-bromo-1H-indazol-3-yl)methanone], the EC50 was above 100 µM.

For the compound `O=C(c1cc2c(Cl)cccc2s1)N1C[C@@H]2C[N@@]3CC[C@@H]2[C@@H]1C3` [Example 106, 4-chlorobenzo[b]thiophen-2-yl((3S,3aS,6R,7aR)-hexahydro-3,6-methanopyrrolo[2,3-c]pyridin-1(2H)-yl)methanone], the EC50 is above 100 µM.

Regarding `COc1cccc2[nH]nc(C(=O)N3C[C@@H]4C[N@@]5CC[C@@H]4[C@@H]3C5)c12` [Example 107, ((3S,3aS,6R,7aR)-hexahydro-3,6-methanopyrrolo[2,3-c]pyridin-1(2H)-yl)(4-methoxy-1H-indazol-3-yl)methanone], the EC50 worked out at 30 µM.

For `O=C(c1cc2cccc(Cl)c2s1)N1C[C@@H]2C[N@@]3CC[C@@H]2[C@@H]1C3` [Example 108, 7-chlorobenzo[b]thiophen-2-yl((3S,3aS,6R,7aR)-hexahydro-3,6-methanopyrrolo[2,3-c]pyridin-1(2H)-yl)methanone], the EC50 was above 100 µM.

Take `O=C(c1n[nH]c2cc(Cl)ccc12)N1C[C@@H]2C[N@@]3CC[C@@H]2[C@@H]1C3` [Example 109, ((3S,3aS,6R,7aR)-hexahydro-3,6-methanopyrrolo[2,3-c]pyridin-1(2H)-yl)(6-chloro-1H-indazol-3-yl)methanone]: the EC50 is above 100 µM.

Consider `COc1ccc2[nH]nc(C(=O)N3C[C@@H]4C[N@@]5CC[C@@H]4[C@@H]3C5)c2c1` [Example 110, ((3S,3aS,6R,7aR)-hexahydro-3,6-methanopyrrolo[2,3-c]pyridin-1(2H)-yl)(5-methoxy-1H-indazol-3-yl)methanone], for which the EC50 is above 100 µM.

Regarding `O=C(c1nsc2ccccc12)N1C[C@@H]2C[N@@]3CC[C@@H]2[C@@H]1C3` [Example 111, benzo[d]isothiazol-3-yl((3S,3aS,6R,7aR)-hexahydro-3,6-methanopyrrolo[2,3-c]pyridin-1(2H)-yl)methanone], the EC50 worked out at 36 µM.

Turning to `O=C(c1ccc(Cl)cc1)N1C[C@@H]2C[N@@]3CC[C@@H]2[C@@H]1C3` [Example 112, (4-chlorophenyl)((3S,3aS,6R,7aR)-hexahydro-3,6-methanopyrrolo[2,3-c]pyridin-1(2H)-yl)methanone], the 50% effective concentration (EC50) was above 100 µM.

On to `O=C(c1cc2ccccc2o1)N1C[C@@H]2C[N@@]3CC[C@@H]2[C@@H]1C3` [Example 113, benzofuran-2-yl((3S,3aS,6R,7aR)-hexahydro-3,6-methanopyrrolo[2,3-c]pyridin-1(2H)-yl)methanone], for which the concentration giving a half-maximal response (EC50) is above 100 µM.

Still in this test, the particulars now being: Table 4, agonist Ca2+ flux, read-out: FLIPR α7 (EC50).
Regarding `O=C(c1n[nH]c2ccccc12)N1CC2CCN3CCC2C1C3` (centres unmarked) [Example 114, (hexahydro-1H-1,6-methanopyrrolo[3,4-d]azepin-2(7H)-yl)(1H-indazol-3-yl)methanone], the EC50 was determined as 0.47 µM.

Staying with this test, now noted: Table 5, agonist Ca2+ flux, read-out: FLIPR α7 (EC50).
Consider `O=C(c1n[nH]c2ccccc12)N1C2CC3CC1CN(C3)C2` [Example 115, 1,4-diazaadamantan-4-yl(1H-indazol-3-yl)methanone], for which the half-maximal effective concentration (EC50) was determined as 0.073 µM.
